Each compound was assayed on Oryctolagus cuniculus (assay: Progestational activity in immature rabbit assessed as proliferation of uterus administered intramuscularly by haematoxylin and eosin staining-based assay).
Type: functional

| Compound | log(activity) |
| --- | --- |
| C=C1C[C@H]2[C@@H]3C=C(OC(C)=O)C4=CC(=O)CC[C@]4(C)[C@H]3CC[C@]2(C)[C@@]1(OC(C)=O)C(C)=O | -0.7 |
| C=C1C[C@H]2[C@@H]3C=C(Cl)C4=CC(=O)CC[C@]4(C)[C@H]3CC[C@]2(C)[C@@]1(OC(C)=O)C(C)=O | 1.89 |
| C=C1C[C@H]2[C@@H]3C=C(F)C4=CC(=O)CC[C@]4(C)[C@H]3CC[C@]2(C)[C@@]1(OC(C)=O)C(C)=O | 1.74 |
| C=C1C[C@H]2[C@@H]3C=C(Br)C4=CC(=O)CC[C@]4(C)[C@H]3CC[C@]2(C)[C@@]1(OC(C)=O)C(C)=O | 1.62 |
| C=C1C[C@H]2[C@@H]3C=C(N=[N+]=[N-])C4=CC(=O)CC[C@]4(C)[C@H]3CC[C@]2(C)[C@@]1(OC(C)=O)C(C)=O | 1.3 |
| C=C1C[C@H]2[C@@H]3C=C(OC)C4=CC(=O)CC[C@]4(C)[C@H]3CC[C@]2(C)[C@@]1(OC(C)=O)C(C)=O | 1.15 |
| C=C1C[C@H]2[C@@H]3C=C(SC#N)C4=CC(=O)CC[C@]4(C)[C@H]3CC[C@]2(C)[C@@]1(OC(C)=O)C(C)=O | 1.08 |
| C=C1C[C@H]2[C@@H]3C=C(C(F)(F)F)C4=CC(=O)CC[C@]4(C)[C@H]3CC[C@]2(C)[C@@]1(OC(C)=O)C(C)=O | 1.04 |
| C=C1C[C@H]2[C@@H]3C=C(C#N)C4=CC(=O)CC[C@]4(C)[C@H]3CC[C@]2(C)[C@@]1(OC(C)=O)C(C)=O | 0.78 |
| C=C1C[C@H]2[C@@H]3C=C(OCC)C4=CC(=O)CC[C@]4(C)[C@H]3CC[C@]2(C)[C@@]1(OC(C)=O)C(C)=O | 0 |
| C=C1C[C@H]2[C@@H]3C=CC4=CC(=O)CC[C@]4(C)[C@H]3CC[C@]2(C)[C@@]1(OC(C)=O)C(C)=O | 0 |
| C=C1C[C@H]2[C@@H]3C=C(C=O)C4=CC(=O)CC[C@]4(C)[C@H]3CC[C@]2(C)[C@@]1(OC(C)=O)C(C)=O | 0 |
| C=C1C[C@H]2[C@@H]3C=C(NC(C)=O)C4=CC(=O)CC[C@]4(C)[C@H]3CC[C@]2(C)[C@@]1(OC(C)=O)C(C)=O | -1 |
| C=C1C[C@H]2[C@@H]3C=C(C)C4=CC(=O)CC[C@]4(C)[C@H]3CC[C@]2(C)[C@@]1(OC(C)=O)C(C)=O [MELENGESTROL ACETATE] | 1.96 |

Source: ChEMBL document CHEMBL3271998, “Quantitative structure-activity relationships among steroids. Investigations of the use of steric parameters” (1976)
